Test results from patent US12377104B1, “Methods for treating a fatty liver disease” (Madrigal Pharmaceuticals, Inc., priority 2024, dated 2025).
“And” between values parts separate entries of the source, which are not always exact repeats. Equal entries are not always repeated.

System: adults with biopsy-confirmed NASH
Experiment: MAESTRO-NASH: lipids, lipoproteins and lipid particles
Assay type: in vivo, human
Conditions: 100 mg; for ApoB, Least Squares Mean % CFB / ApoB, Least Squares Mean % CFB Difference from PBO / LDL-C, Least Squares Mean % CFB / LDL-C, Least Squares Mean % CFB Difference from PBO: baseline LDL-C >100 mg/dL; for Lp(a), LS mean % CFB / Lp(a), LS mean % CFB difference from PBO: baseline Lp(a) >10 nmol/L; for Triglycerides, LS mean % CFB / Triglycerides, LS mean % CFB difference from PBO: baseline triglycerides >150 mg/dL
Procedure: Within the study, we provided analyses based on an analysis of covariance (ANCOVA) model after having performed single imputation for LDL-C as described in the statistical analysis plan (SAP). The ANCOVA model estimated least-squares means using treatment and baseline LDL-C as covariate.
To this end, the Week 24 LDL-C assessment and assessments at any visit in which LDL-C is measured (Weeks 4, 12, 16, 20, 24, 28, 32, 36, 40, 44, 48, and 52) that has been impacted by kit shortage at the prior visit (unavailability of […] (IP) during the 4 weeks preceding the visit due to the COVID-19 pandemic as indicated on the electronic case report form (eCRF)), were considered missing and were imputed from an unaffected assessment at surrounding visits or using data from subjects unaffected by this intercurrent event as described in Section 11.2 of the SAP. In summary, single imputation utilizing adjacent and valid […] measurements were imputed.
For missing lipid data that are still missing after the single imputation approach described, those missing lipid data were imputed using the non-missing lipid values (including the singly imputed data) based on missing at random (MAR)-based (MI). When applying the MAR-based […], data were imputed separately by randomized treatment group and baseline stratification factors.

CC(C)c1cc(Oc2c(Cl)cc(-n3nc(C#N)c(=O)[nH]c3=O)cc2Cl)n[nH]c1=O [Resmetirom, 2-(3,5-dichloro-4-((5-isopropyl-6-oxo-1,6-dihydropyridazin-3-yl)oxy)phenyl)-3,5-dioxo-2,3,4,5-tetrahydro-1,2,4-triazine-6-carbonitrile]
Apolipoprotein B level, difference from placebo (wk 24): −20.2 percentage points | Apolipoprotein B level, least-squares mean percent change from baseline (wk 24): −19.8 ± 1.3% | LDL cholesterol level, difference from placebo (wk 24): −16.4 percentage points | LDL cholesterol level, least-squares mean percent change from baseline (wk 24): −16.3% and −16.3 ± 1.7% | Lipoprotein(a) level, difference from placebo (wk 24): −35.1 percentage points | Triglyceride level, difference from placebo (wk 24): −19.1 percentage points | Lipoprotein(a) level, least-squares mean percent change from baseline (wk 24, baseline lipoprotein(a) >10 nmol per liter): −35.9 ± 4.0% | Triglyceride level, least-squares mean percent change from baseline (wk 24, baseline triglyceride >150 mg per deciliter): −21.7 ± 4.3% | ApoB, LS mean % CFB (Week 24): -19.8% | ApoB, LS mean % CFB difference from PBO (Week 24): −20.2% | ApoCIII, Least Squares Mean % CFB (Week 24): −14.1% | ApoCIII, Least Squares Mean % CFB Difference from PBO (Week 24): −22.2% | HDL-C, Least Squares Mean % CFB (Week 24): 2.9% | HDL-C, Least Squares Mean % CFB Difference from PBO (Week 24): 1.2% | LDL-C, LS mean % CFB (Week 24): −16.3% | LDL-C, LS mean % CFB difference from PBO (Week 24): −16.4% | Non-HDL-C, Least Squares Mean % CFB (Week 24): −17.7% | Non-HDL-C, Least Squares Mean % CFB Difference from PBO (Week 24): −17.9% | ApoB, Least Squares Mean % CFB (Week 24): −22.1% | ApoB, Least Squares Mean % CFB Difference from PBO (Week 24): −18.4% | LDL-C, Least Squares Mean % CFB (Week 24): −20.6% | LDL-C, Least Squares Mean % CFB Difference from PBO (Week 24): −14.7% | ApoCIII, Least Squares Mean % CFB (Week 52): −17.1% | ApoCIII, Least Squares Mean % CFB Difference from PBO (Week 52): −26.9% | HDL particle size, Least Squares Mean % CFB (Week 52): 0.40% | HDL particle size, Least Squares Mean % CFB Difference from PBO (Week 52): 0.10% | HDL particles, Least Squares Mean % CFB (Week 52): 2.3% | HDL particles, Least Squares Mean % CFB Difference from PBO (Week 52): 0.69% | HDL-C, Least Squares Mean % CFB (Week 52): 4.6% | HDL-C, Least Squares Mean % CFB Difference from PBO (Week 52): 2.0% | LDL particle size, Least Squares Mean % CFB (Week 52): −0.35% | LDL particle size, Least Squares Mean % CFB Difference from PBO (Week 52): −0.39% | LDL particles, Least Squares Mean % CFB (Week 52): −20.0% | LDL particles, Least Squares Mean % CFB Difference from PBO (Week 52): −19.4% | Large HDL particles, Least Squares Mean % CFB (Week 52): 4.5% | Large HDL particles, Least Squares Mean % CFB Difference from PBO (Week 52): −7.7% | Large LDL particles, Least Squares Mean % CFB (Week 52): 55.6% | Large LDL particles, Least Squares Mean % CFB Difference from PBO (Week 52): −30.8% | Large VLDL and chylomicron particles, Least Squares Mean % CFB (Week 52): −9.1% | Large VLDL and chylomicron particles, Least Squares Mean % CFB Difference from PBO (Week 52): −20.2% | Medium HDL particles, Least Squares Mean % CFB (Week 52): 130.2% | Medium HDL particles, Least Squares Mean % CFB Difference from PBO (Week 52): 65.2% | Medium VLDL particles, Least Squares Mean % CFB (Week 52): −27.4% | Medium VLDL particles, Least Squares Mean % CFB Difference from PBO (Week 52): −143.2% | Non-HDL-C, Least Squares Mean % CFB (Week 52): −22.1% | Non-HDL-C, Least Squares Mean % CFB Difference from PBO (Week 52): −21.7% | Small LDL particles, Least Squares Mean % CFB (Week 52): 6.6% | Small LDL particles, Least Squares Mean % CFB Difference from PBO (Week 52): −15.0% | Small VLDL particles, Least Squares Mean % CFB (Week 52): 26.3% | Small VLDL particles, Least Squares Mean % CFB Difference from PBO (Week 52): −15.3% | VLDL and chylomicron particles, Least Squares Mean % CFB (Week 52): −20.2% | VLDL and chylomicron particles, Least Squares Mean % CFB Difference from PBO (Week 52): −28.4% | VLDL and chylomicron triglycerides, Least Squares Mean % CFB (Week 52): −17.9% | VLDL and chylomicron triglycerides, Least Squares Mean % CFB Difference from PBO (Week 52): −22.8% | VLDL particle size, Least Squares Mean % CFB (Week 52): 3.4% | VLDL particle size, Least Squares Mean % CFB Difference from PBO (Week 52): 1.4% | ApoB, Least Squares Mean % CFB (Week 52): −26.6% | ApoB, Least Squares Mean % CFB Difference from PBO (Week 52): −20.1% | LDL-C, Least Squares Mean % CFB (Week 52): −27.1% | LDL-C, Least Squares Mean % CFB Difference from PBO (Week 52): −17.5% | Lp(a), LS mean % CFB (week 24): −35.9% | Lp(a), LS mean % CFB difference from PBO (week 24): 35.1% | Triglycerides, LS mean % CFB (week 24): −21.7% | Triglycerides, LS mean % CFB difference from PBO (week 24): −19.1% | ApoB, LS mean % CFB (week 52): -22.3% | ApoB, LS mean % CFB difference from PBO (week 52): −22.9% | LDL-C, LS mean % CFB (week 52): −19.5% | LDL-C, LS mean % CFB difference from PBO (week 52): −19.0% | Lp(a), LS mean % CFB (week 52): −37.5% | Lp(a), LS mean % CFB difference from PBO (week 52): −32.4% | Triglycerides, LS mean % CFB (week 52): −28.4% | Triglycerides, LS mean % CFB difference from PBO (week 52): −24.9%
